Measurements as given in ChEMBL document CHEMBL1201862, “PubChem BioAssay data set” (2004).
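Five concentrations, 48 hours, 96-well plates. GI50 is the concentration that inhibits growth by half.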 The source made the active and inactive calls. No stated cut-off is given here; in the data, active = GI50 up to about 1.1 µM and inactive = higher.

How the values were obtained:
Assay in all cases: inhibition of tumour cell growth, NCI panel, 48 h
[1] = test system: 786-0
[2] = test system: A498
[3] = test system: A549
[4] = test system: ACHN
[5] = test system: CAKI-1
[6] = test system: CCRF-CEM
[7] = test system: COLO 205
[8] = test system: DLD-1
[9] = test system: DMS-114
[10] = test system: EKVX
[11] = test system: HCC 2998
[12] = test system: HCT-116
[13] = test system: HL-60
[14] = test system: HOP-18
[15] = test system: HOP-62
[16] = test system: HOP-92
[17] = test system: HT-29
[18] = test system: IGROV-1
[19] = test system: K562
[20] = test system: KM-20L2
[21] = test system: KM12
[22] = test system: LOX IMVI
[23] = test system: LXFL 529
[24] = test system: M14
[25] = test system: M19-MEL
[26] = test system: MOLT-4
[27] = test system: Malme-3M
[28] = test system: NCI-H226
[29] = test system: NCI-H23
[30] = test system: NCI-H522
[31] = test system: OVCAR-3
[32] = test system: OVCAR-4
[33] = test system: OVCAR-5
[34] = test system: OVCAR-8
[35] = test system: RPMI-8226
[36] = test system: SF-268
[37] = test system: SF-295
[38] = test system: SF-539
[39] = test system: SK-MEL-28
[40] = test system: SK-MEL-5
[41] = test system: SK-OV-3
[42] = test system: SN12C
[43] = test system: SNB-19
[44] = test system: SNB-75
[45] = test system: SR
[46] = test system: SW-620
[47] = test system: TK-10
[48] = test system: U-251
[49] = test system: UACC-257
[50] = test system: UACC-62
[51] = test system: UO-31
[52] = test system: DMS-273
[53] = test system: HCT-15
[54] = test system: NCI-H460
[55] = test system: RXF 393
[56] = test system: SK-MEL-2
[57] = test system: SNB-78

Measured: GI50

O=S1(=O)c2cc(S(=O)(=O)n3ccnc3)ccc2NC2=NCCCN21
inactive: [1] 32.2 µM | [2] 28 µM | [3] 34.2 µM | [4] 34.3 µM | [5] 38.8 µM | [6] 21 µM | [7] 18.6 µM | [8] 28.1 µM | [9] 22.1 µM | [10] > 100 µM | [11] 23 µM | [12] 29.7 µM | [13] 15.5 µM | [14] 42.2 µM | [15] 22 µM | [16] > 100 µM | [17] 20.3 µM | [18] 40.7 µM | [19] 17.7 µM | [20] 22.3 µM | [21] 24.8 µM | [22] 38.5 µM | [23] 31.5 µM | [24] 26.7 µM | [25] 35.3 µM | [26] 40.7 µM | [27] 37.9 µM | [28] 19.8 µM | [29] 30.7 µM | [30] 14.2 µM | [31] 20.3 µM | [32] 47.4 µM | [33] 48.1 µM | [34] 27.2 µM | [35] 50 µM | [36] 41.2 µM | [37] 29.4 µM | [38] 19.6 µM | [39] > 100 µM | [40] 20.2 µM | [41] 20.3 µM | [42] 33.3 µM | [43] 78.5 µM | [44] 26.7 µM | [45] 20.7 µM | [46] 26.2 µM | [47] 61 µM | [48] 21.3 µM | [49] > 100 µM | [50] 48.5 µM | [51] 31 µM

O=C1N(c2ccccc2)C2(O)C(=O)c3ccccc3C2(O)N1c1ccccc1 (stereo unspecified)
inactive: [1] > 100 µM | [2] > 100 µM | [3] > 100 µM | [4] > 100 µM | [5] > 100 µM | [6] > 100 µM | [7] > 100 µM | [8] > 100 µM | [9] > 100 µM | [52] > 100 µM | [10] > 100 µM | [11] > 100 µM | [12] > 100 µM | [14] > 100 µM | [15] > 100 µM | [17] > 100 µM | [18] > 100 µM | [19] > 100 µM | [20] > 100 µM | [21] > 100 µM | [22] > 100 µM | [23] > 100 µM | [24] > 100 µM | [25] > 100 µM | [26] > 100 µM | [27] > 100 µM | [28] > 100 µM | [29] > 100 µM | [54] > 100 µM | [30] > 100 µM | [31] > 100 µM | [32] > 100 µM | [33] > 100 µM | [34] > 100 µM | [35] > 100 µM | [55] > 100 µM | [36] > 100 µM | [37] > 100 µM | [38] > 100 µM | [39] > 100 µM | [56] > 100 µM | [40] > 100 µM | [41] > 100 µM | [42] > 100 µM | [43] > 100 µM | [44] > 100 µM | [57] > 100 µM | [45] > 100 µM | [46] > 100 µM | [47] > 100 µM | [48] > 100 µM | [49] > 100 µM | [50] > 100 µM | [51] > 100 µM
> 100 µM: [53]
